From US20260137807A1, “COMPOSITIONS AND METHODS FOR DELIVERING A MACROMOLECULE TO A CELL” (AstraZeneca AB, priority 2022, published 2026)

Columns and labels:
U2OS_Luc705 cells = assay: Splice switching activity assay, 24 hr SMC treatment, Examples 4C/4D; type: cell-based; settings: 2.5 μM compound, 1 μM SSO, FIG. 27
Protocol: (§1) U2OS_Luc705 and N2A_Luc705 cells were seeded in 96-well plates at 10,000 cells per well in growth media with 1 μM Luc705-SSO. The various SMCs were diluted directly into prepared growth media. After 24 hr to allow adherence and SSO internalization, 10 μl of diluted SMC was added into each well at indicated concentrations. For a positive control, SSOs were complexed with Lipofectamine 2000 for 30 min at RT and cells treated with a final concentration of 200 nM. ON concentrations above 200 nM would require LF2000 to be used in excess of the cells' toxicity threshold. After 24 hr treatment, cells were lysed with 0.1% TritonX-100 (Sigma Aldrich, cat no. X100) in 1× PBS (Gibco, cat no. 10010023).
(§2) For the detection of luciferase activity, 30 μL of cell lysate was transferred to white-walled plates. The luciferase intensity in each well was immediately measured via luminometer following auto-injection of 25 μL Luciferin substrate as per the Promega Firefly Luciferase Assay System. The timing parameters of photon measurements were optimized for this procedure.
as §1, with “The” for “U2OS_Luc705 and N2A_Luc705 cells were seeded in 96-well plates at 10,000 cells per well in growth media with 1 μM Luc705-SSO. The”

N2A_Luc705 cells = assay: as above; type: cell-based; settings: 2.5 μM compound, 1 μM SSO, FIG. 27
Protocol: as §1, §2
as §1, with “The” for “U2OS_Luc705 and N2A_Luc705 cells were seeded in 96-well plates at 10,000 cells per well in growth media with 1 μM Luc705-SSO. The”

Floxed mice = assay: Co-delivery of Cre recombinase, in vivo editing tdTomato reporter, ICV
Protocol: Cre recombinase ([…] […] […] […] […] […] […] (SEQ ID NO: 10)) was co-administered with Compound 4 to assess improvement in editing efficiency in an in vivo reporter system, in which edited mice express tdTomato. Floxed mice were administered via intracerebroventricular injection (ICV) with 60 pmol Cre recombinase and varying concentrations (2.5, 5.0, 7.5, 10.0, 12.5, and 15 μM) of Compound 4 as calculated in 40 μL CSF volume. Brain segments were analyzed by immunofluorescent staining 7 days post-treatment.

MALAT1 mRNA = assay: MALAT1 knockdown by gapmer, real-time PCR; type: cell-based, mouse; settings: 2 μM AZ3327 with 2 μM gapmer, N2A cells, FIG. 28
Protocol: N2A cells were cultured in Dulbecco's modified eagle medium (Gibco, 31,966) containing 10% fetal bovine serum (Gibco, 10,270) and were maintained at 37° C. in a humidified atmosphere containing 5% CO2, 21% O2.
For knockdown analysis of the gapmers, 24-well plates 50,000 N2A cells in 500 μL total volume of media per well. Twenty-four hours later, the cells were treated with 2 μM MALAT1-targeting gapmer oligonucleotide having the sequence GM5CAttm5ctaatagm5cAGM5C, where m5c is 5-methylcytidine and capital letters are LNA nucleosides (SEQ ID NO:4) (Oligo Only), 2 μM MALA T1-targeting gapmer oligonucleotide and simultaneously 2 μM AZ3327 (2 μM AZ3327), or Lipofectamine-complexed MALAT1 Oligonucleotide at 200 nM (LF2000). All treatments were performed in biological triplicates. […] RNA concentration was measured via Nanodrop and cDNA was synthesized with High Capacity cDNA Reverse Transcription kit as per manufacturer's instructions (ThermoFisher Scientific, 4368814).
Real-time PCR reactions were run on QuantStudio 7 Flex Real-Time PCR System (Applied Biosystems) using MALAT1 TaqMan assays (mouse Mm01227912, Applied Biosystems) following the manufacturer's instructions. […] The absolute mRNA expression levels for MALAT1 were calculated by linear regression fitting the PCR product to a standard curve. […]

[1] = system: different cell lines (mCherry-GAL9); assay: mCherry-GAL9 response between different cell lines; type: cell-based; settings: 0.31 to 10 μM, 2 hours post-dosing, FIG. 41 and 48
Protocol: All of the stable cell lines generated from HeLa and Huh7 cells were maintained and cultivated in Dulbecco's modified Eagle's medium (DMEM) with high glucose with GlutaMAX (Gibco, cat. no. 31966-021), 10% fetal bovine serum (gibco, cat. no. 10270-106), and 1% penicillin-streptomycin (gibco, cat. no. 15140-122) at 37° C., 5% CO2 in 95% humidity in T75 TC flask (Sarstedt, 83.3911.002). The cells were detached (trypsin 0.25% EDTA, 10 min) and passaged twice a week. HEK293 and HeLa, HepG2, Huh7 and U2OS mCherry-GAL9 cell lines were maintained in DMEM, NCI-H358 mCherry-GAL9 were maintained in RPMI (Gibco: 32430-027) and SH-SY5Y mCherry-GAL9 were maintained in DMEM/F12 (Gibco: 32430-027). All growth media was supplemented with 10% FBS and 1 μg/ml Puromycin (Gibco: A11138-03) to maintain reporter expression. All cells were routinely tested and mycoplasma negative.
HeLa and Huh7 cells were further submitted to the mCherry-GAL9-recruitment analysis with treatment with select compounds and observed for endosomal rupture at various time points (1 hour, 2 hours, and 16 hours). GAL9 response results at different doses (1.25-5 μM) of the selected compounds are shown in FIG. 33 (Huh7 cells) and FIG. 34 (HeLa cells). […] FIG. 40 further provides additional results comparing time (0.25 to 4 hours), dose of select compounds (0.31 to 10 μM) and GAL9 response in Huh7 cells. […]

With `COc1nn(C2CCNCC2)cc1Nc1ncc(F)c(-n2ccc3c(C#N)cccc32)n1` [Compound 4] the “activity of the oligo as compared to oligo only” value (U2OS_Luc705 cells) was “enhanced activity of the oligo as compared to oligo only”, the “activity of the oligo as compared to oligo only” value (N2A_Luc705 cells) was “enhanced activity of the oligo as compared to oligo only” and the “in vivo editing in the brain (tdTomato staining)” value (Floxed mice; ICV, 60 pmol Cre, 2.5-15 μM compound, 7 days post-treatment) was “enhanced by Compound 4 in a dose-dependent manner”. The “staining in the lumbar sections of the spinal cord” value (Floxed mice; ICV, 60 pmol Cre, FIG. 44B) was “obvious staining”, the location of editing (Floxed mice; dissection segments, FIG. 44C) was “primarily at the injection site” and the “knockdown of MALAT1 mRNA expression as compared to oligo alone” value (MALAT1 mRNA) was “enhanced knockdown of MALAT1 mRNA expression”. The “GAL9 response between different cell lines” value [1] was “GAL9 responses across multiple cell lines of diverse background origins”.
